Data published in ChEMBL document CHEMBL1153901, “Synthesis and antibacterial activity evaluation of metronidazole-triazole conjugates” (Bioorg Med Chem Lett, 2009).
In brackets after ≈: the same amount, converted by molar mass. Activity calls are given as the source filed them. No cut-off for these calls is given here.

Key:
Type in all cases: functional, organism-based
[1] = test system: Escherichia coli; test: Antibacterial activity against Escherichia coli after 24 hrs by NCCLS microdilution method
[2] = test system: Pseudomonas aeruginosa; test: Antibacterial activity against Pseudomonas aeruginosa after 24 hrs by […] microdilution method
[3] = test system: Staphylococcus aureus; test: Antibacterial activity against Staphylococcus aureus after 24 hrs by […] microdilution method
[4] = test system: Staphylococcus epidermidis; test: Antibacterial activity against Staphylococcus epidermidis after 24 hrs by […] microdilution method
[5] = test system: Candida albicans; test: Antifungal activity against Candida albicans
[6] = test system: Nakaseomyces glabratus; test: Antifungal activity against Candida glabrata
[7] = test system: Geotrichum candidum; test: Antifungal activity against Geotrichum candidum

SMILES	IC50 [1] [µg/mL]	IC50 [2] [µg/mL]	IC50 [3] [µg/mL]	IC50 [4] [µg/mL]	Activity [5]	Activity [6]	Activity [7]
Cc1ncc([N+](=O)[O-])n1CCn1cc(COc2ccc(Cl)cc2)nn1	0.003 (≈ 0.00827 µM)	0.02 (≈ 0.0551 µM)	0.13 (≈ 0.358 µM)	> 500	inactive	inactive	inactive
Cc1ncc([N+](=O)[O-])n1CCn1cc(COc2ccc([N+](=O)[O-])cc2)nn1	> 500	> 500	> 500	> 500	–	–	–
Cc1ncc([N+](=O)[O-])n1CCn1cc(COC2CCCCO2)nn1 (stereo not drawn)	> 500	> 500	> 500	> 500	–	–	–
COCc1cn(CCn2c([N+](=O)[O-])cnc2C)nn1	> 500	> 500	> 500	> 500	–	–	–
Cc1ncc([N+](=O)[O-])n1CCn1cc(COc2ccccc2[N+](=O)[O-])nn1	> 500	> 500	> 500	> 500	–	–	–
Cc1ncc([N+](=O)[O-])n1CCn1cc(-c2ccccn2)nn1	0.12 (≈ 0.401 µM)	0.13 (≈ 0.434 µM)	0.13 (≈ 0.434 µM)	> 500	inactive	inactive	inactive
Cc1ncc([N+](=O)[O-])n1CCn1cc(CBr)nn1	> 500	> 500	> 500	> 500	–	–	–
Cc1ncc([N+](=O)[O-])n1CCn1cc(CO)nn1	0.091 (≈ 0.361 µM)	0.18 (≈ 0.714 µM)	0.35 (≈ 1.39 µM)	0.35 (≈ 1.39 µM)	inactive	inactive	inactive
Cc1ncc([N+](=O)[O-])n1CCn1cc(COc2ccccc2)nn1	0.67 (≈ 2.04 µM)	0.13 (≈ 0.396 µM)	> 500	> 500	–	–	–
Cc1ncc([N+](=O)[O-])n1CCn1cc(COc2ccccc2Cl)nn1	> 500	> 500	> 500	> 500	–	–	–
Cc1ncc([N+](=O)[O-])n1CCn1cc(COc2ccc(C=O)cc2)nn1	0.07 (≈ 0.196 µM)	0.07 (≈ 0.196 µM)	> 500	> 500	inactive	inactive	inactive
Cc1ncc([N+](=O)[O-])n1CCn1cc(CCO)nn1	> 500	> 500	> 500	> 500	–	–	–
CCC(=O)OCc1cn(CCn2c([N+](=O)[O-])cnc2C)nn1	> 500	> 500	> 500	> 500	–	–	–

Continued, in another order:

IC50 [1] [µg/mL]	IC50 [2] [µg/mL]	IC50 [3] [µg/mL]	IC50 [4] [µg/mL]	SMILES	Activity [5]	Activity [6]	Activity [7]
0.028 (≈ 0.0818 µM)	> 500	> 500	> 500	Cc1ccccc1OCc1cn(CCn2c([N+](=O)[O-])cnc2C)nn1	inactive	inactive	inactive
> 500	> 500	> 500	> 500	Cc1ncc([N+](=O)[O-])n1CCn1cc(COc2ccccc2C=O)nn1	–	–	–
> 500	> 500	> 500	> 500	CC(=O)c1ccc(OCc2cn(CCn3c([N+](=O)[O-])cnc3C)nn2)cc1	–	–	–
> 500	0.18 (≈ 0.562 µM)	> 500	> 500	Cc1ncc([N+](=O)[O-])n1CCn1cc(C2(O)CCCCC2)nn1	inactive	inactive	inactive
0.067 (≈ 0.196 µM)	0.068 (≈ 0.199 µM)	0.26 (≈ 0.759 µM)	> 500	Cc1cccc(OCc2cn(CCn3c([N+](=O)[O-])cnc3C)nn2)c1	inactive	inactive	inactive
0.06 (≈ 0.175 µM)	0.03 (≈ 0.0876 µM)	0.13 (≈ 0.38 µM)	> 500	Cc1ccc(OCc2cn(CCn3c([N+](=O)[O-])cnc3C)nn2)cc1	inactive	inactive	inactive
0.13 (≈ 0.436 µM)	0.13 (≈ 0.436 µM)	> 500	> 500	Cc1ncc([N+](=O)[O-])n1CCn1cc(-c2ccccc2)nn1	inactive	inactive	inactive
0.09 (≈ 0.203 µM)	0.06 (≈ 0.135 µM)	0.12 (≈ 0.27 µM)	0.08 (≈ 0.18 µM)	CN(C)[C@@H]1C(O)=C(C(N)=O)C(=O)[C@@]2(O)C(O)=C3C(=O)c4c(O)cccc4[C@@](C)(O)[C@H]3C[C@@H]12 [TETRACYCLINE]	–	–	–
> 500	> 500	0.31 (≈ 1.04 µM)	> 500	Cc1ncc([N+](=O)[O-])n1CCn1cc(-c2cccnc2)nn1	inactive	inactive	inactive
